The nature of one data set: Solubility in solvents. The format is physicochemical.
Data set [1] deals with MCF7 (ER-positive BC) cells. Kind of data set: MTT cell viability assay, MCF7. The format is cell-based, human. The source says: (§1) For in vitro assays, three tumor cell lines were used: MCF7 (ER-positive BC), maintained in Roswell Park Memorial Institute medium (RPMI-1640, Gibco®, Grand Island, NY, USA); MDA-MB-453 (HER2-positive BC), grown in Iscove’s Modified Dulbecco’s Medium (IMDM, Gibco®); and MDA-MB-231 (TNBC), grown in Leibovitz’s L-15 Medium (L15, Gibco®). Additionally, three non-tumor cell lines were used: HUVEC (human umbilical vein endothelial cells), cultured in (RPMI-1640); HFF (human fibroblast), cultured in Dulbecco’s Modified Eagle Medium: Nutrient Mixture—High Glucose (DMEM/F12-High Glucose, Gibco®); and MCF10A (human mammary epithelial cell line), also cultured in DMEM/F12 supplemented with 10 μg/mL of insulin (Gibco®), 0.25 μg/mL of hydrocortisone (Sigma-Aldrich®, Saint Louis, MO, USA), and […] of Epidermal Growth Factor (EGF) (Gibco®). All culture media were supplemented with 10% fetal bovine serum (FBS) (Gibco®) and 50 μg/mL of gentamicin (Cultilab®, Campinas, SP, Brazil). The culture flasks were kept in an incubator at 37 °C under an atmosphere of 5% CO2, except for the MDA-MB 231 lineage, which was grown without CO2 gas exchange. All cells were purchased from the American Type Culture Collection (ATCC, Manassas, VA, USA).
(§2) To analyze cell viability, the test based on the reduction of tetrazolium 3-(4,5-dimethylthiazol-2yl)-2,5-diphenyl bromide (MTT) was used. HUVEC cell lines (1.0 × 10^4 cells/well); HFF (8.0 × 10^3 cells/well); MCF10A (1.2 × 10^4 cells/well); MDA-MB-453 and MCF7 (5.0 × 10^3 cells/well) and MDA-MB-231 (1.5 × 10^4 cells/well) were seeded in 96-well plates in complete culture medium. […] All assays were performed in triplicate. Wells containing only cells and medium (untreated cells) and wells containing cells treated with DMSO diluent were used as experimental controls (considered as 100% cell viability). After incubation, MTT (5 mg/mL-diluted in phosphate-buffered saline—PBS) was added along with complete culture medium at 10% v/v and maintained for 4 h. Then, 200 μL of DMSO was added to each well and the reading was carried out at 560 nm using the Multiskan FC Microplate Photometer reader (Thermo Fisher Scientific®, Waltham, MA, USA).
(§3) The data obtained were analyzed using GraphPad Prism 8.0 software. Three independent triplicate assays were conducted and means and standard deviations were calculated. Normality was assessed using the Shapiro–Wilk test and Student’s t-test and one-way ANOVA, followed by Tukey’s post-test, were applied to compare treatments. Differences were considered significant when p < 0.05. The IC50 values were calculated by non-linear regression and the selectivity index (SI) for MDA-MB-231 cells was established by the ratio between the IC50 of each non-tumor cell line and the IC50 of MDA-MB-231. SI values ≥ 2 were considered significant.

Data set [2] deals with MDA-MB-453 (HER2-positive BC) cells. Description: MTT cell viability assay, MDA-MB-453. Type of data set: cell-based, human. Here is the method: All culture media were supplemented with 10% fetal bovine serum (FBS) (Gibco®) and 50 μg/mL of gentamicin (Cultilab®, Campinas, SP, Brazil). […] All cells were purchased from the American Type Culture Collection (ATCC, Manassas, VA, USA).
as §2, with “used.” for “used. HUVEC cell lines (1.0 × 10^4 cells/well); HFF (8.0 × 10^3 cells/well); MCF10A (1.2 × 10^4 cells/well); MDA-MB-453 and MCF7 (5.0 × 10^3 cells/well) and MDA-MB-231 (1.5 × 10^4 cells/well) were seeded in 96-well plates in complete culture medium.”
The data obtained were analyzed using GraphPad Prism 8.0 software. Three independent triplicate assays were conducted and means and standard deviations were calculated. Normality was assessed using the Shapiro–Wilk test and Student’s t-test and one-way ANOVA, followed by Tukey’s post-test, were applied to compare treatments. Differences were considered significant when p < 0.05. […] SI values ≥ 2 were considered significant.
Background: Formazan colour is commonly taken as a measure of viable cells.

The next data set has as its system MDA-MB-231 (TNBC) cells. Kind of data set: MTT cell viability assay, MDA-MB-231. The format is cell-based, human.
Source text: as §1, §2, §3

For data set [3], the system named is MCF10A (human mammary epithelial cell line). Kind of data set: MTT cell viability assay, MCF10A. Type of data set: cell-based. Details: key to SI (Non-Tumor/MDA-MB231) MCF10A: NS: nonselective; HS: highly selective.
Source text: as §1
(§4) To analyze cell viability, the test based on the reduction of tetrazolium 3-(4,5-dimethylthiazol-2yl)-2,5-diphenyl bromide (MTT) was used. […] Then, 200 μL of DMSO was added to each well and the reading was carried out at 560 nm using the Multiskan FC Microplate Photometer reader (Thermo Fisher Scientific®, Waltham, MA, USA).
(§5) The data obtained were analyzed using GraphPad Prism 8.0 software. Three independent triplicate assays were conducted and means and standard deviations were calculated. Normality was assessed using the Shapiro–Wilk test and Student’s t-test and one-way ANOVA, followed by Tukey’s post-test, were applied to compare treatments. […] The IC50 values were calculated by non-linear regression and the selectivity index (SI) for MDA-MB-231 cells was established by the ratio between the IC50 of each non-tumor cell line and the IC50 of MDA-MB-231. […]

Data set [4] has as its system HUVEC (human umbilical vein endothelial cells). Kind of data set: MTT cell viability assay, HUVEC. Type of data set: cell-based. Here is the method:
(§6) For in vitro assays, three tumor cell lines were used: MCF7 (ER-positive BC), maintained in Roswell Park Memorial Institute medium (RPMI-1640, Gibco®, Grand Island, NY, USA); MDA-MB-453 (HER2-positive BC), grown in Iscove’s Modified Dulbecco’s Medium (IMDM, Gibco®); and MDA-MB-231 (TNBC), grown in Leibovitz’s L-15 Medium (L15, Gibco®). […]
as §4, §5

The test system of the next data set is HFF (human fibroblast). Description: MTT cell viability assay, HFF. Type of data set: cell-based. The procedure:
as §6, §4, §5

Some results are limits rather than exact numbers.

On to `CC(=NNC(N)=O)c1ccccn1.CCNC(=NN=C(C)c1ccccn1)[S][Zn+].[Cl-]` [Complex 3, [Zn(atc–Et)(Hsc)]Cl], for which the “solubility in MeOH” value in the data set “Solubility in solvents” is recorded as “pretty soluble”.

By IC50 is commonly meant the concentration that inhibits the measured activity by half. Take `CCNC(=S)N/N=C(\C)c1ccccn1` [Hatc-Et, 2-Acetylpyridine-4-ethyl-3-thiosemicarbazone]: the “cytotoxicity in words, MCF7” value in data set [1] (48 h) is listed as “most resistant”. In addition, the IC50 is over 156 µM in data set [1] (Homo sapiens, MCF7, 48 h); under 0.01 µM in data set [2] (Homo sapiens, MDA-MB-453, 48 h); 0.27 µM with MDA-MB-231 (TNBC) cells (Homo sapiens, MDA-MB-231, 48 h). Further, the “cytotoxicity in words, MDA-MB-453” value in data set [2] (48 h) is “most sensitive”. In the data set on MDA-MB-231 (TNBC) cells (48 h), the “cytotoxicity in words, MDA-MB-231” value is reported as “most sensitive”.

As for `CC(=NN=C([O][Zn+])c1ccco1)c1ccccn1.CC(=NNC(N)=O)c1ccccn1.[Cl-]` [Complex 4, [Zn(Hz)(Hsc)]Cl], in the data set “Solubility in solvents”, the “solubility in MeOH” value is reported as “pretty soluble”.

For the molecule `[Cl-].[Cl-].[Zn+2]` [ZnCl2, zinc chloride], the IC50 in data set [1] (48 h) was over 156 µM; in data set [2] (48 h) it was under 0.01 µM; with MDA-MB-231 (TNBC) cells (48 h), over 156 µM.

`CCNC(=NN=C(C)c1ccccn1)[S][Zn][O]C(=NN=C(C)c1ccccn1)c1ccco1` [Complex 1, [Zn(Hz)(atc–Et)]]: the IC50 in data set [1] (48 h) is 9.43 µM; in data set [2] (48 h) it was 0.32 µM; in the data set with MDA-MB-231 (TNBC) cells (48 h), 0.24 µM; in data set [3] (48 h, MTT, non-tumor cell line) it was under 0.01 µM; in data set [4] (48 h, MTT, non-tumor cell line), 2.52 µM; in the data set on HFF (human fibroblast) (48 h, MTT, non-tumor cell line), 4.57 µM. The “concentration from which cell viability decreased, MCF7” value in data set [1] (48 h) is at least 0.25 µM. Further, the “cytotoxicity in words, MCF7” value in data set [1] (48 h) is reported as “proliferated after treatment with the lowest concentrations”. Further, the “cytotoxicity in words, MDA-MB-453” value in data set [2] (48 h) is given as “cytotoxic”. Further, in the data set on MDA-MB-231 (TNBC) cells (48 h), the “cytotoxicity in words, MDA-MB-231” value is reported as “cytotoxic”. For the same molecule, the “sensitivity in words, MCF10A” value in data set [3] (48 h, MTT, compared with HUVEC and HFF) is listed as “most sensitive”. For the same molecule, in data set [3] (IC50 in MCF10A divided by IC50 of MDA-MB-231), the “SI (Non-Tumor/MDA-MB231) MCF10A” value is “NS”. Besides, in data set [4] (IC50 in HUVEC divided by IC50 of MDA-MB-231), the “SI (Non-Tumor/MDA-MB231) HUVEC” value is given as 10.50. The “SI (Non-Tumor/MDA-MB231) HFF” value with HFF (human fibroblast) (IC50 in HFF divided by IC50 of MDA-MB-231) came to 19.04.

In the case of `CC(=NNC(=O)c1ccco1)c1ccccn1` [Hhz, 2-Acetylpyridine-furanoylhidrazone], in data set [1] (48 h), the “concentration from which cell viability decreased, MCF7” value is reported as at least 6.25 µM. Further, the IC50 in data set [1] (Homo sapiens, MCF7, 48 h) is over 156 µM; in data set [2] (Homo sapiens, MDA-MB-453, 48 h) it was 4.11 µM; in the data set on MDA-MB-231 (TNBC) cells (Homo sapiens, MDA-MB-231, 48 h), 30.3 µM. Moreover, in data set [2] (48 h), the “concentration from which cell viability decreased, MDA-MB-453” value was at least 6.25 µM. In addition, the “concentration from which cytotoxicity was observed, MDA-MB-231” value with MDA-MB-231 (TNBC) cells (48 h) was at least 1250 nM.

These data come from PMC11676115, “A New Heteroleptic Zn(II) Complex with Schiff Bases Sensitizes Triple-Negative Breast Cancer Cells to Doxorubicin and Paclitaxel” (Pharmaceutics, 2024).
